Experimental data taken from patent publication US20070219224A1, “Compositions and Methods Relating to Pyrimidine Synthesis Inhibitors” (UAB RESEARCH FOUNDATION, THE, priority 2004, published 2007).
“Also recorded” adds a separate entry of the source. Marks after values point to notes of the source that are not given here.

Columns and labels:
[1] = test system: RSV-infected BALB/c mice; assay: Alveolar fluid clearance (AFC) in RSV-infected mice at day 2 p.i.; type: in vivo; set-up: effect of uridine in the AFC instillate on the A77-1726 effect on AFC: dose or concentration left out as unconfirmed; conditions: for effect on RSV-mediated inhibition of AFC at day 2 p.i. (in words): added to the AFC instillate; for effect on RSV-mediated inhibition of AFC at d2 (in words): systemic treatment (leflunomide oral gavage; uridine, 6-MP i.p.)
Experimental: Preparation of viral inocula and infection of mice. […] J. Physiol. Lung Cell Mol. Physiol. […] Data for each experimental group was derived from a minimum of 2 independent infections.
(§1) Systemic inhibition of de novo pyrimidine and purine synthesis. Leflunomide (5-methylisoxazole-4-[4-trifluoromethyl]carboxanilide, 35 mg/kg in distilled water containing 1% methylcellulose) was administered once daily by oral gavage in a volume of 300 μl/mouse for 8 days prior to infection, then throughout the infection period. Vehicle controls were gavaged with an equivalent volume of 1% methylcellulose in distilled water.
To systemically block de novo pyrimidine synthesis, mice were gavaged once daily for 8 days with […] of the dihydro-orotate reductase (DHOR) inhibitor leflunomide ([…] suspended in 1% methylcellulose) or vehicle prior to infection, then at 0 and 24 hours p.i. AFC studies were performed at 48 hours p.i., with no additions to the AFC instillate.
(§2) AFC studies were performed on anesthetized, ventilated BALB/c mice with normal body temperature and blood gases, over a 30 minute period after intratracheal instillation of 0.3 ml of isosmolar NaCl containing 5% fatty acid-free BSA. The number of mice analyzed per group is listed in the relevant bar of each graph.

[2] = test system: uninfected BALB/c mice; assay: Alveolar fluid clearance (AFC) in uninfected or mock-infected mice; type: in vivo; conditions: uninfected mice
Experimental: Systemic inhibition of de novo pyrimidine and purine synthesis. […] Vehicle controls were gavaged with an equivalent volume of 1% methylcellulose in distilled water. Uridine (1 g/kg in 0.9% NaCl) was administered by i.p. injection every 12 hours in a volume of 100 μl (8). […]
as §2

[3] = test system: RSV-infected BALB/c mice; assay: Lung water content (wet:dry weight ratio) after RSV infection; type: in vivo
Experimental: (§3) Preparation of viral inocula and infection of mice. Preparation of viral stocks and intranasal infection of eight to twelve week-old pathogen-free BALB/c mice of either sex with RSV strain A2 (10^6 PFU in 100 μl) were performed as described in Davis et al., “Nucleotide-mediated inhibition of alveolar fluid clearance in BALB/c mice after respiratory syncytial virus infection,” Am. J. Physiol. Lung Cell Mol. Physiol. 286:L112-L120. (2004). Data for each experimental group was derived from a minimum of 2 independent infections.
as §1, with “water. […]” for “water.”

[4] = type: in vivo
Experimental: as §3
as §1, with “water. […]” for “water.”

[5] = test system: RSV strain A2; assay: RSV replication in mouse lungs; type: in vivo, Respiratory syncytial virus; conditions: RSV-infected mice, day 2 p.i.; systemic treatment
Experimental: as §3
as §1, with “water. […]” for “water.”

[6] = test system: IFN-α, IL-1β, KC, TNF-α in BALF; assay: Measurement of proinflammatory cytokines in BALF (ELISA); type: in vivo, BALB/c mice; conditions: RSV-infected mice, d2
Experimental: as §3
(§4) Bronchoalveolar lavage. Bronchoalveolar lavage fluid (BALF) was collected as previously described in Davis et al., (2004), using 1 ml of sterile normal saline for cytokine ELISAs, or 0.3 ml of sterile saline for nucleotide assays. Lavagates were centrifuged to remove cells and supernatants stored at −80° C.
as §1, with “water. […].” for “water.”
Measurement of proinflammatory cytokines in BALF. Cytokine levels were determined using Quantikine M ELISA kits (R & D Systems), in accordance with manufacturer's instructions.

[7] = test system: UTP/ATP content of BALF; assay: Measurement of nucleotides (UTP/ATP content) in BALF of RSV-infected mice; type: in vivo, BALB/c mice; conditions: d2
Experimental: as §3, §4
Measurement of nucleotides in BALF. Endogenous nucleotidases in BALF were heat denatured (100° C., 3 minutes) and UTP/ATP content measured using the […] and luciferine-luciferase assays, respectively.
as §1, with “water. […]” for “water.”

[8] = RSV-infected mice, day 2 p.i., final concentration 25 μM (Table 6)
[9] = RSV-infected mice, d2, inhibitor 100 μM in AFC instillate (Table 5)

CNCCC(Oc1ccc(C(F)(F)F)cc1)c1ccccc1 (stereo not drawn) [Fluoxetine]
AFC (mean % AFC ± SE) ([1]; RSV-infected mice, d2, inhibitor 10 μM in AFC instillate (Table 5)): 34.54 ± 0.79 % | AFC30BASAL (mean % basal AFC after 30 minutes ± SE) ([1]; RSV-infected mice, day 2 p.i., final concentration 10 μM (Table 6)): 34.54 ± 0.79 % | effect on RSV-mediated inhibition of AFC at day 2 p.i. (in words) [1]: blocked RSV-mediated inhibition of AFC

N=C(N)NC(=O)c1nc(Cl)c(N)nc1N [AMIL, amiloride]
AFC (mean % AFC ± SE) with amiloride in instillate ([1]; RSV-infected mice, d2, 1.5 mM amiloride added to the instillate): 22.82 ± 1.92% | AFC (mean % AFC ± SE) with amiloride in instillate ([2]; 1.5 mM amiloride added to the instillate): 14.65 ± 1.59 %

O=c1ccn([C@@H]2O[C@H](COP(=O)(O)OP(=O)(O)OP(=O)(O)O)[C@@H](O)[C@H]2O)c(=O)[nH]1 [UTP]
effect of UTP in the AFC instillate on the VRAC inhibitor effect on AFC ([1]; RSV-infected mice, d2, 500 nM UTP): reversed

O=c1c(-c2ccc(O)cc2)coc2cc(O)cc(O)c12 [Genistein]
AFC30BASAL (mean % basal AFC after 30 minutes ± SE) [1, 8]: 20.39 ± 0.73% | effect on RSV-mediated inhibition of AFC at day 2 p.i. (in words) [1]: not recapitulated; also recorded: not replicated

Sc1ncnc2nc[nH]c12 [6-MP, 6-mercaptopurine]
lung water content (wet:dry weight ratio) (in words) ([3]; day 2, systemic treatment): did not alter lung wet:dry weight ratios | AFC30BASAL (mean % basal AFC after 30 minutes ± SE) [1, 8]: 26.31 ± 1.85 % | effect on RSV-mediated inhibition of AFC at day 2 p.i. (in words) [1]: only a minor effect | effect on RSV-mediated inhibition of AFC at day 2 p.i. (in words) ([1]; listed as 6-mercaptopurine): not and only a small blocking effect | effect on RSV-mediated inhibition of AFC at d2 (in words) [1]: no effect on AFC | tolerance to anesthesia ([4]; 6-MP 35 mg/kg i.p. every 24 hours): poor tolerance to anesthesia (resulting in sporadic deaths) | body weight loss after RSV infection ([4]; D1 and d2 p.i., versus untreated RSV-infected mice): significant increase in body weight loss | body weight during the pretreatment (preinfection) period ([4]; before RSV infection, leflunomide 8 days, 6-MP 5 days): significant loss of body weight | virus replication in lung tissue at d2 [5]: no significant inhibitory effect | BALF proinflammatory cytokine levels (IFN-α, IL-1β, KC, TNF-α) (in words) [6]: comparable decline | IFN-α, mean cytokine concentration in BALF ± SE ([6]; systemic treatment): 105 ± 14 pg/mL | IL-1β, mean cytokine concentration in BALF ± SE ([6]; systemic treatment): 9 ± 3 pg/mL | KC, mean cytokine concentration in BALF ± SE ([6]; systemic treatment): 329 ± 63 pg/mL | TNF-α, mean cytokine concentration in BALF ± SE ([6]; systemic treatment): 0*** pg/ml

COc1c(C)c2c(c(O)c1C/C=C(\C)CCC(=O)O)C(=O)OC2 [MPA, mycophenolic acid]
AFC30BASAL (mean % basal AFC after 30 minutes ± SE) [1, 8]: 26.2 ± 1.7 % | effect on RSV-mediated inhibition of AFC at day 2 p.i. (in words) [1]: only a minor effect | effect on RSV-mediated inhibition of AFC at day 2 p.i. (in words) ([1]; listed as mycophenolic acid): not and only a small blocking effect

CC/C(=C(\c1ccccc1)c1ccc(OCCN(C)C)cc1)c1ccccc1 [Tamoxifen]
AFC (mean % AFC ± SE) ([1]; RSV-infected mice, d2, inhibitor 25 μM in AFC instillate (Table 5)): 34.50 ± 0.94 % | AFC30BASAL (mean % basal AFC after 30 minutes ± SE) [1, 8]: 34.5 ± 0.95 % | effect on RSV-mediated inhibition of AFC at day 2 p.i. (in words) [1]: blocked RSV-mediated inhibition of AFC

COc1ccc(Cl)cc1C(=O)NCCc1ccc(S(=O)(=O)NC(=O)NC2CCCCC2)cc1 [Glibenclamide]
AFC (mean % AFC ± SE) [1, 9]: 24.24 ± 4.24% | effect on RSV-mediated inhibition of AFC at day 2 p.i. (in words) [1]: unaffected

O=c1ccn([C@@H]2O[C@H](CO)[C@@H](O)[C@H]2O)c(=O)[nH]1 [Uridine]
effect of concomitant uridine on the leflunomide effect on lung water content ([3]; day 2 p.i.): reversed this effect; also recorded: prevented this effect | effect of uridine in the AFC instillate on the A77-1726 effect on AFC ([1]; RSV-infected mice, day 2 p.i.): fully reversed; also recorded: blocked | AFC30BASAL (mean % basal AFC after 30 minutes ± SE) ([1]; RSV-infected mice, day 2 p.i., leflunomide 5 mg/kg oral gavage once daily, uridine 1 mg/kg i.p. q12h): 22.89 ± 2.22% | effect of concomitant uridine on the leflunomide effect on AFC ([1]; RSV-infected mice, day 2 p.i., uridine i.p. throughout the leflunomide treatment period): prevented; also recorded: reversed | effect on RSV-mediated inhibition of AFC at d2 (in words) [1]: no effect on AFC | effect of concomitant uridine on the leflunomide effect on BALF nucleotides [7]: reversed the effect of leflunomide on BALF UTP and ATP levels; also recorded: caused a significant increase in the BALF nucleotide content over that in untreated RSV-infected mice | effect of concomitant uridine on the leflunomide effect on weight loss ([4]; RSV-infected mice, D1 and d2): did not prevent this effect | virus replication in lung tissue at d2 [5]: no effect on virus replication; also recorded: unaffected | effect of concomitant uridine on the leflunomide effect on BALF cytokines ([6]; exception IFN-α): only partially reversed

C[C@]1(C2CCCC2)Cc2cc(OCC(=O)O)c(Cl)c(Cl)c2C1=O [R(+)-IAA 94, R(+)-[(6,7-dichloro-2-cyclopentyl-2,3-dihydro-2-methyl-1-oxo-1H-inden-5yl)-oxy] acetic acid 94]
AFC (mean % AFC ± SE) [1, 9]: 34.25 ± 1.98 % | effect on RSV-mediated inhibition of AFC at day 2 p.i. (in words) [1]: blocked

C/C(O)=C(\C#N)C(=O)Nc1ccc(C(F)(F)F)cc1 [A77-1726]
lung wet:dry weight ratios, intranasal treatment ([3]; A77-1726 intranasal): normalization of lung wet:dry weight ratios | effect on RSV-induced inhibition of AFC, intranasal treatment (in words) ([1]; 50 μM in 100 μl normal saline intranasally at 24 hours p.i.): completely blocked | AFC30BASAL (mean % basal AFC after 30 minutes ± SE) ([1]; RSV day 2 p.i., 50 μM in 100 μl normal saline intranasally 24 hours after infection): 32.68 ± 1.1 % | AFC30BASAL (mean % basal AFC after 30 minutes ± SE) [1, 8]: 34.06 ± 1.88 % | effect on RSV-mediated inhibition of AFC at day 2 p.i. (in words) [1]: prevented; also recorded: reverses RSV-mediated inhibition of AFC | AFC30BASAL (mean % basal AFC after 30 minutes ± SE) ([2]; 50 μM in 100 μl normal saline intranasally 24 hours prior to AFC assay): 23.19 ± 5.95 %

apyrase
effect on RSV-mediated inhibition of AFC at day 2 p.i. (in words) [1]: reversed

O=C(O)c1cc([N+](=O)[O-])ccc1NCCCc1ccccc1 [NPPB, 5-nitro-2-(3-phenylpropylamino) benzoic acid]
AFC (mean % AFC ± SE) [1, 9]: 32.70 ± 2.18 % | AFC30BASAL (mean % basal AFC after 30 minutes ± SE) ([1]; RSV-infected mice, day 2 p.i., final concentration 100 μM (Table 6)): 35.12 ± 1.94 % | effect on RSV-mediated inhibition of AFC at day 2 p.i. (in words) [1]: blocked

O=c1[nH]cnc2nc[nH]c12 [hypoxanthine]
effect of hypoxanthine in the AFC instillate on the MPA effect on AFC ([1]; RSV-infected mice, day 2 p.i., 50 mM hypoxanthine as printed): fully reversed; also recorded: blocked

O=C(O)c1cccnc1Nc1cccc(C(F)(F)F)c1 [Niflumic acid]
AFC (mean % AFC ± SE) [1, 9]: 20.28 ± 1.53% | effect on RSV-mediated inhibition of AFC at day 2 p.i. (in words) [1]: unaffected

CCN(CC)CCOc1ccc(C(=C(Cl)c2ccccc2)c2ccccc2)cc1 [Clomiphene]
AFC (mean % AFC ± SE) ([1]; RSV-infected mice, d2, inhibitor 20 μM in AFC instillate (Table 5)): 31.05 ± 2.65 % | AFC30BASAL (mean % basal AFC after 30 minutes ± SE) ([1]; RSV-infected mice, day 2 p.i., final concentration 20 μM (Table 6)): 31.0 ± 2.67 % | effect on RSV-mediated inhibition of AFC at day 2 p.i. (in words) [1]: blocked
